Data published in ChEMBL document CHEMBL4665869, “New thiazolopyrimidine as anticancer agents: Synthesis, biological evaluation, DNA binding, molecular modeling and ADMET study” (Bioorg Med Chem Lett, 2020).
In brackets after ≈: the same amount, converted by molar mass. Activity calls are given as the source filed them. No cut-off for these calls is given here.

How the values were obtained:
[1] = system: HL-60(TB); test: Growth inhibition of human HL-60(TB) cells at 10 uM relative to control; type: functional
[2] = system: NCI/ADR-RES; test: Growth inhibition of human NCI/ADR-RES cells at 10 uM relative to control; type: functional; settings: read-out: GI
[3] = system: MOLT-4; test: Growth inhibition of human MOLT-4 cells at 10 uM relative to control; type: functional
[4] = system: OVCAR-5; test: Growth inhibition of human OVCAR-5 cells at 10 uM relative to control; type: functional
[5] = system: NCI-H322M; test: Growth inhibition of human NCI-H322M cells at 10 uM relative to control; type: functional; settings: read-out: GI
[6] = system: A549; test: Growth inhibition of human A549 cells at 10 uM relative to control; type: functional
[7] = system: RXF 393; test: Growth inhibition of human RXF 393 cells at 10 uM relative to control; type: functional
[8] = system: SF-295; test: Growth inhibition of human SF-295 cells at 10 uM relative to control; type: functional
[9] = system: UACC-62; test: Growth inhibition of human UACC-62 cells at 10 uM relative to control; type: functional
[10] = system: Panel NCI-60 (60 carcinoma cell lines); test: Growth inhibition of human NCI60 cells; type: functional
[11] = system: MDA-MB-468; test: Growth inhibition of human MDA-MB-468 cells at 10 uM relative to control; type: functional
[12] = system: NCI-H522; test: Growth inhibition of human NCI-H522 cells at 10 uM relative to control; type: functional
[13] = system: NCI-H23; test: Growth inhibition of human NCI-H23 cells at 10 uM relative to control; type: functional; settings: read-out: GI
[14] = system: SR; test: Growth inhibition of human SR cells at 10 uM relative to control; type: functional
[15] = system: SNB-19; test: Growth inhibition of human SNB-19 cells at 10 uM relative to control; type: functional
[16] = system: HCT-116; test: Growth inhibition of human HCT-116 cells at 10 uM relative to control; type: functional; settings: read-out: GI
[17] = system: HCT-15; test: Growth inhibition of human HCT-15 cells at 10 uM relative to control; type: functional; settings: read-out: GI
[18] = system: UO-31; test: Growth inhibition of human UO-31 cells at 10 uM relative to control; type: functional; settings: read-out: GI
[19] = system: SF-539; test: Growth inhibition of human SF-539 cells at 10 uM relative to control; type: functional
[20] = system: IGROV-1; test: Growth inhibition of human IGROV-1 cells at 10 uM relative to control; type: functional
[21] = system: SK-MEL-5; test: Growth inhibition of human SK-MEL-5 cells at 10 uM relative to control; type: functional
[22] = system: BT-549; test: Growth inhibition of human BT-549 cells at 10 uM relative to control; type: functional
[23] = system: LOX IMVI; test: Growth inhibition of human LOX IMVI cells at 10 uM relative to control; type: functional; settings: read-out: GI
[24] = system: NCI-H226; test: Growth inhibition of human NCI-H226 cells at 10 uM relative to control; type: functional
[25] = system: OVCAR-4; test: Growth inhibition of human OVCAR-4 cells at 10 uM relative to control; type: functional; settings: read-out: GI
[26] = system: SK-OV-3; test: Growth inhibition of human SK-OV-3 cells at 10 uM relative to control; type: functional; settings: read-out: GI
[27] = system: 786-0; test: Growth inhibition of human 786-0 cells at 10 uM relative to control; type: functional; settings: read-out: GI
[28] = system: DU-145; test: Growth inhibition of human DU-145 cells at 10 uM relative to control; type: functional; settings: read-out: GI
[29] = system: KM12; test: Growth inhibition of human KM12 cells at 10 uM relative to control; type: functional; settings: read-out: GI
[30] = system: HT-29; test: Growth inhibition of human HT-29 cells at 10 uM relative to control; type: functional; settings: read-out: GI
[31] = system: MCF7; test: Growth inhibition of human MCF7 cells at 10 uM relative to control; type: functional; settings: read-out: GI
[32] = system: HCC 2998; test: Growth inhibition of human HCC 2998 cells at 10 uM relative to control; type: functional
[33] = system: CCRF-CEM; test: Growth inhibition of human CCRF-CEM cells at 10 uM relative to control; type: functional
[34] = system: MDA-MB-435; test: Growth inhibition of human MDA-MB-435 cells at 10 uM relative to control; type: functional
[35] = system: MDA-MB-231; test: Growth inhibition of human MDA-MB-231 cells at 10 uM relative to control; type: functional; settings: read-out: GI
[36] = system: SK-MEL-28; test: Growth inhibition of human SK-MEL-28 cells at 10 uM relative to control; type: functional
[37] = system: ACHN; test: Growth inhibition of human ACHN cells at 10 uM relative to control; type: functional
[38] = system: UACC-257; test: Growth inhibition of human UACC-257 cells at 10 uM relative to control; type: functional; settings: read-out: GI
[39] = system: OVCAR-8; test: Growth inhibition of human OVCAR-8 cells at 10 uM relative to control; type: functional
[40] = system: SN12C; test: Growth inhibition of human SN12C cells at 10 uM relative to control; type: functional; settings: read-out: GI
[41] = system: A498; test: Growth inhibition of human A498 cells at 10 uM relative to control; type: functional
[42] = system: HOP-92; test: Growth inhibition of human HOP-92 cells at 10 uM relative to control; type: functional
[43] = system: T47D; test: Growth inhibition of human T47D cells at 10 uM relative to control; type: functional
[44] = system: SK-MEL-2; test: Growth inhibition of human SK-MEL-2 cells at 10 uM relative to control; type: functional
[45] = system: TK-10; test: Growth inhibition of human TK-10 cells at 10 uM relative to control; type: functional; settings: read-out: GI
[46] = system: NCI-H460; test: Growth inhibition of human NCI-H460 cells at 10 uM relative to control; type: functional; settings: read-out: GI
[47] = system: Malme-3M; test: Growth inhibition of human Malme-3M cells at 10 uM relative to control; type: functional
[48] = system: HOP-62; test: Growth inhibition of human HOP-62 cells at 10 uM relative to control; type: functional; settings: read-out: GI
[49] = system: COLO 205; test: Growth inhibition of human COLO 205 cells at 10 uM relative to control; type: functional
[50] = system: CAKI-1; test: Growth inhibition of human CAKI-1 cells at 10 uM relative to control; type: functional
[51] = target: DNA; test: Displacement of methyl green from DNA (unknown origin) assessed as DNA intercalation after 24 hrs by colorimetric assay; type: nucleic-acid assay
[52] = system: RPMI-8226; test: Growth inhibition of human RPMI-8226 cells at 10 uM relative to control; type: functional
[53] = system: SW-620; test: Growth inhibition of human SW-620 cells at 10 uM relative to control; type: functional; settings: read-out: GI
[54] = system: K562; test: Growth inhibition of human K562 cells at 10 uM relative to control; type: functional; settings: read-out: GI
[55] = system: SNB-75; test: Growth inhibition of human SNB-75 cells at 10 uM relative to control; type: functional
[56] = system: M14; test: Growth inhibition of human M14 cells at 10 uM relative to control; type: functional
[57] = system: SF-268; test: Growth inhibition of human SF-268 cells at 10 uM relative to control; type: functional
[58] = system: Hs-578T; test: Growth inhibition of human Hs-578T cells at 10 uM relative to control; type: functional
[59] = system: PC-3; test: Growth inhibition of human PC-3 cells at 10 uM relative to control; type: functional; settings: read-out: GI
[60] = system: U-251; test: Growth inhibition of human U-251 cells at 10 uM relative to control; type: functional; settings: read-out: GI

COc1cccc2c1C(=O)c1c(O)c3c(c(O)c1C2=O)C[C@@](O)(C(=O)CO)C[C@@H]3O[C@H]1C[C@H](N)[C@H](O)[C@H](C)O1 [DOXORUBICIN]
growth inhibition (GI) [1]: Active
inhibition of growth at 10 µM [2]: 95.1%
growth inhibition (GI) [3]: Active
growth inhibition (GI) [4]: Active
inhibition of growth at 10 µM [5]: 86.1%
growth inhibition (GI) [6]: Active
growth inhibition (GI) [7]: Active
growth inhibition (GI) [8]: Active
growth inhibition (GI) [9]: Active
GI50 [10]: 150 nM
TGI [10]: 2480 nM
growth inhibition (GI) [11]: Active
growth inhibition (GI) [12]: Active
inhibition of growth at 10 µM [13]: 66.7%
growth inhibition (GI) [14]: Active
growth inhibition (GI) [15]: Active
inhibition of growth at 10 µM [16]: 97.2%
inhibition of growth at 10 µM [17]: 84.8%
inhibition of growth at 10 µM [18]: 96%
growth inhibition (GI) [19]: Active
growth inhibition (GI) [20]: Active
growth inhibition (GI) [21]: Active
growth inhibition (GI) [22]: Active
inhibition of growth at 10 µM [23]: 94.3%
growth inhibition (GI) [24]: Active
inhibition of growth at 10 µM [25]: 85.9%
inhibition of growth at 10 µM [26]: 86.2%
inhibition of growth at 10 µM [27]: 95.5%
inhibition of growth at 10 µM [28]: 86.8%
inhibition of growth at 10 µM [29]: 95.8%
inhibition of growth at 10 µM [30]: 95.3%
inhibition of growth at 10 µM [31]: 96.6%
growth inhibition (GI) [32]: Active
growth inhibition (GI) [33]: Active
growth inhibition (GI) [34]: Active
inhibition of growth at 10 µM [35]: 96.2%
growth inhibition (GI) [36]: Active
growth inhibition (GI) [37]: Active
inhibition of growth at 10 µM [38]: 96.5%
growth inhibition (GI) [39]: Active
inhibition of growth at 10 µM [40]: 88%
growth inhibition (GI) [41]: Active
growth inhibition (GI) [42]: Active
growth inhibition (GI) [43]: Active
growth inhibition (GI) [44]: Active
inhibition of growth at 10 µM [45]: 74.6%
inhibition of growth at 10 µM [46]: 99.4%
growth inhibition (GI) [47]: Active
inhibition of growth at 10 µM [48]: 93.1%
growth inhibition (GI) [49]: Active
growth inhibition (GI) [50]: Active
IC50 [51]: 31.27 µg/mL (≈ 57.5 µM)
growth inhibition (GI) [52]: Active
inhibition of growth at 10 µM [53]: 98.1%
inhibition of growth at 10 µM [54]: 97.9%
growth inhibition (GI) [55]: Active
growth inhibition (GI) [56]: Active
growth inhibition (GI) [57]: Active
growth inhibition (GI) [58]: Active
inhibition of growth at 10 µM [59]: 98.7%
inhibition of growth at 10 µM [60]: 90.8%
